Earlier results as cited in patent US20120061267A1, “MediTowel Anti-Fungal Wipe” (priority 2010, published 2012).
Structures can show the parent of a compound that is named as a salt.

Tests used:
[1] = tested on: Trichophyton mentagrophytes; conditions: at a low concentration
squalene epoxidase = conditions: in the cells of fungi

In the case of CN(C/C=C/C#CC(C)(C)C)Cc1cccc2ccccc12 [Terbinafine hydrochloride], the “fungicidal effect on sterilizing germinated conidium” value [1] is given as “fungicidal effect” and the “inhibition of squalene epoxidase” value (squalene epoxidase) is given as “selectively inhibits”.
